Measured values reported in patent US11000033B2, “Ketone or oxime compound, and herbicide” (NISSAN CHEMICAL CORPORATION, priority 2014, dated 2021).

Key:
Assay type in all cases: in vivo
[1] = test system: Echinochloa crus-galli var. crus-galli; experiment: Test Example 4: herbicidal effect by soil treatment (symbol H); settings: application herbicide amount 320 g/ha
Outline: (§1)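 Seeds were sown in sterilized diluvial soil, covered with about 1.5 cm of soil, and the soil surface was sprayed with a water-diluted emulsion of the compound at a predetermined rate. Plants grew in a greenhouse at 25° C. to 30° C.; effects were scored visually 3 weeks after application.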

Avena fatua [2] = experiment: Test Example 5: herbicidal effect by foliage application, plastic box (symbol I); settings: 320 g/ha, 3 weeks after application
Outline: (§2)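 Greenhouse foliar test: seedlings at 14 days, grown 25° C. to 30° C. in sterilized diluvial soil; compound applied as an aqueous dilution of an emulsion; response read 3 weeks after spraying.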

Chenopodium album [3] = experiment: Test Example 4: herbicidal effect by soil treatment (symbol O); settings: application herbicide amount 320 g/ha
Outline: as §1

Lolium multiflorum Lam. = experiment: Test Example 4: herbicidal effect by soil treatment (symbol K); settings: application herbicide amount 320 g/ha
Outline: as §1

corn = experiment: Test Example 5: effect on crop by foliage application, plastic box (symbol c); settings: 320 g/ha, 3 weeks after application
Outline: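 Diluvial soil, sterilized and boxed (21 × 13 × 7 cm), received spot-sown seed covered by about 1.5 cm soil; plants were then greenhouse-grown at 25–30° C.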

Setaria viridis = experiment: Test Example 5: herbicidal effect by foliage application, plastic box (symbol G); settings: 320 g/ha, 3 weeks after application
Outline: as §2

transplanted rice plant = experiment: Test Example 1: effect on crop, application before weed generation in submerged conditions (symbol a); settings: application herbicide amount 320 g/ha
Outline: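 Rice at 2.5 leaf stage transplanted into submerged soil (4 cm depth) sown with three weed species; herbicide applied before weed emergence.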

Avena fatua [4] = experiment: Test Example 4: herbicidal effect by soil treatment (symbol I); settings: application herbicide amount 320 g/ha
Outline: as §1

[5] = test system: Echinochloa oryzacola Vasing.; experiment: Test Example 2: herbicidal activity, application during weed generation in submerged conditions (symbol A); settings: Table 23; application herbicide amount 320 g/ha; grade 0-5 by criteria of Test Example 1
Outline: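 Flooded-soil post-emergence test: emulsion of compound, water-diluted to target rate, applied to paddy water surface at 1–2 leaf stage of mixed-sown weeds (alluvial soil, 4 cm water, 25–30° C. greenhouse); visual rating 3 weeks after application.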

Veronica persica [6] = experiment: Test Example 5: herbicidal effect by foliage application, plastic box (symbol R); settings: 320 g/ha, 3 weeks after application
Outline: as §2

Chenopodium album [7] = experiment: Test Example 5: herbicidal effect by foliage application, plastic box (symbol O); settings: 320 g/ha, 3 weeks after application
Outline: as §2

Digitaria ciliaris = experiment: Test Example 4: herbicidal effect by soil treatment (symbol F); settings: application herbicide amount 320 g/ha
Outline: as §1

Leptochloa chinensis = experiment: Test Example 3: herbicidal effect by foliage application, Wagner pot (symbol D); settings: application herbicide amount 320 g/ha
Outline: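 Rating at 3 weeks post-spray, by defined criteria. Treatment: emulsion diluted with water to a predetermined amount, applied evenly to foliage of 14-day-old plants raised in alluvial soil flooded 0.1–0.5 cm deep at 25–30 °C, rice co-sown.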

Veronica persica [8] = experiment: Test Example 4: herbicidal effect by soil treatment (symbol R); settings: application herbicide amount 320 g/ha
Outline: as §1

SMILES | Herbicidal effect grade, H: Echinochloa crus-galli var. crus-galli [1] | I: Avena fatua, herbicidal effect (criteria of Test Example 1) (Avena fatua [2]) | Herbicidal effect grade, O: Chenopodium album (Chenopodium album [3]) | Herbicidal effect grade, K: Lolium multiflorum Lam. (Lolium multiflorum Lam.) | c: corn, effect on crop (criteria of Test Example 1) (corn) | G: Setaria viridis, herbicidal effect (criteria of Test Example 1) (Setaria viridis) | Effect grade on crop, a: transplanted rice plant (transplanted rice plant) | Herbicidal effect grade, I: Avena fatua (Avena fatua [4]) | Herbicidal effect grade, A: Echinochloa oryzacola Vasing. [5] | R: Veronica persica, herbicidal effect (criteria of Test Example 1) (Veronica persica [6]) | O: Chenopodium album, herbicidal effect (criteria of Test Example 1) (Chenopodium album [7]) | Herbicidal effect grade, F: Digitaria ciliaris (Digitaria ciliaris) | herbicidal effect on D (Leptochloa chinensis), grade 0-5 (Leptochloa chinensis) | Herbicidal effect grade, R: Veronica persica (Veronica persica [8]) | H: Echinochloa crus-galli var. crus-galli, herbicidal effect grade [1] | O: Chenopodium album, herbicidal effect grade (Chenopodium album [3]) | K: Lolium multiflorum Lam., herbicidal effect grade (Lolium multiflorum Lam.) | I: Avena fatua, herbicidal effect grade (Avena fatua [4]) | F: Digitaria ciliaris, herbicidal effect grade (Digitaria ciliaris) | R: Veronica persica, herbicidal effect grade (Veronica persica [8])
CC(=O)CC1CC(O)=C(c2c(C)cc(-c3ccc(C)cc3)cc2C)C1=O (stereo not shown) [7-007] | 5 (Herbicidal ratio of 90% or more (almost completely withered)) | 4 (Herbicidal ratio of 70% or higher and lower than 90%) | 0 (Herbicidal ratio of 5% or lower (almost no effect)) | 5 (Herbicidal ratio of 90% or more (almost completely withered)) | 5 (Herbicidal ratio of 90% or more (almost completely withered)) | 5 (Herbicidal ratio of 90% or more (almost completely withered)) | 5 (Herbicidal ratio of 90% or more (almost completely withered)) | 0 (Herbicidal ratio of 5% or lower (almost no effect)) | 5 (Herbicidal ratio of 90% or more (almost completely withered)) | 0 (Herbicidal ratio of 5% or lower (almost no effect)) | 2 (Herbicidal ratio of 20% or higher and lower than 40%) | 4 (Herbicidal ratio of 70% or higher and lower than 90%) | 5 (Herbicidal ratio of 90% or more (almost completely withered)) | 0 (Herbicidal ratio of 5% or lower (almost no effect)) |  |  |  |  |  | 
CON=C(C)CC1CC(O)=C(c2c(F)cc(-c3ccccc3)cc2OC)C1=O (stereo not shown) [6-107] | 5 (Herbicidal ratio of 90% or more (almost completely withered)) | 5 (Herbicidal ratio of 90% or more (almost completely withered)) | 4 (Herbicidal ratio of 70% or higher and lower than 90%) | 1 (Herbicidal ratio of 5% or higher and lower than 20%) | 5 (Herbicidal ratio of 90% or more (almost completely withered)) | 5 (Herbicidal ratio of 90% or more (almost completely withered)) | 5 (Herbicidal ratio of 90% or more (almost completely withered)) | 3 (Herbicidal ratio of 40% or higher and lower than 70%) | 5 (Herbicidal ratio of 90% or more (almost completely withered)) | 4 (Herbicidal ratio of 70% or higher and lower than 90%) | 4 (Herbicidal ratio of 70% or higher and lower than 90%) | 5 (Herbicidal ratio of 90% or more (almost completely withered)) | 5 (Herbicidal ratio of 90% or more (almost completely withered)) | 4 (Herbicidal ratio of 70% or higher and lower than 90%) |  |  |  |  |  | 
CCc1cc(Br)cc(C)c1C1=C(O)CC(CC(C)=O)C1=O (stereo not shown) [7-003] | 5 (Herbicidal ratio of 90% or more (almost completely withered)) | 5 (Herbicidal ratio of 90% or more (almost completely withered)) | 0 (Herbicidal ratio of 5% or lower (almost no effect)) | 5 (Herbicidal ratio of 90% or more (almost completely withered)) | 5 (Herbicidal ratio of 90% or more (almost completely withered)) | 5 (Herbicidal ratio of 90% or more (almost completely withered)) | 0 (Herbicidal ratio of 5% or lower (almost no effect)) | 4 (Herbicidal ratio of 70% or higher and lower than 90%) | 2 (Herbicidal ratio of 20% or higher and lower than 40%) | 0 (Herbicidal ratio of 5% or lower (almost no effect)) | 0 (Herbicidal ratio of 5% or lower (almost no effect)) | 5 (Herbicidal ratio of 90% or more (almost completely withered)) | 5 (Herbicidal ratio of 90% or more (almost completely withered)) | 0 (Herbicidal ratio of 5% or lower (almost no effect)) |  |  |  |  |  | 
CON=C(C)CC1CC(O)=C(c2c(C)cc(-n3cccn3)cc2C)C1=O (stereo not shown) [6-073] |  | 5 (Herbicidal ratio of 90% or more (almost completely withered)) |  |  | 4 (Herbicidal ratio of 70% or higher and lower than 90%) | 5 (Herbicidal ratio of 90% or more (almost completely withered)) | 5 (Herbicidal ratio of 90% or more (almost completely withered)) |  | 4 (Herbicidal ratio of 70% or higher and lower than 90%) | 3 (Herbicidal ratio of 40% or higher and lower than 70%) | 3 (Herbicidal ratio of 40% or higher and lower than 70%) |  | 5 (Herbicidal ratio of 90% or more (almost completely withered)) |  | 5 (Herbicidal ratio of 90% or more (almost completely withered)) | 0 (Herbicidal ratio of 5% or lower (almost no effect)) | 5 (Herbicidal ratio of 90% or more (almost completely withered)) | 3 (Herbicidal ratio of 40% or higher and lower than 70%) | 5 (Herbicidal ratio of 90% or more (almost completely withered)) | 0 (Herbicidal ratio of 5% or lower (almost no effect))
CON=C(C)CC1CC(O)=C(c2c(C)cc(-c3cc(Cl)cc(Cl)c3)cc2C)C1=O (stereo not shown) [6-087] | 5 (Herbicidal ratio of 90% or more (almost completely withered)) | 0 (Herbicidal ratio of 5% or lower (almost no effect)) | 0 (Herbicidal ratio of 5% or lower (almost no effect)) | 3 (Herbicidal ratio of 40% or higher and lower than 70%) | 0 (Herbicidal ratio of 5% or lower (almost no effect)) | 5 (Herbicidal ratio of 90% or more (almost completely withered)) | 2 (Herbicidal ratio of 20% or higher and lower than 40%) | 0 (Herbicidal ratio of 5% or lower (almost no effect)) | 2 (Herbicidal ratio of 20% or higher and lower than 40%) | 4 (Herbicidal ratio of 70% or higher and lower than 90%) | 0 (Herbicidal ratio of 5% or lower (almost no effect)) | 5 (Herbicidal ratio of 90% or more (almost completely withered)) | 5 (Herbicidal ratio of 90% or more (almost completely withered)) | 2 (Herbicidal ratio of 20% or higher and lower than 40%) |  |  |  |  |  | 
